Results on 1 compound are retold here after patent US7371555B2, “Polypeptides having α-H-α-amino acid amide racemase activity and nucleic acids encoding the same” (DSM IP Assets B.V., priority 2002, dated 2008).

For experiment [1], the system named is E. coli DH10B/pOA(1)PLV49B10 cells containing the α-H-α-amino acid amide racemase gene from Ochrobactrum anthropi IA. The experiment is described as follows: Racemase activity test with D-leucine amide and whole E. coli cells (Example 5). The note with it: Strain A. In kind it is cell-based. Here is the method:
A single colony of E. coli DH10B containing plasmid pOA(1)PLV49B10 was transferred to LB medium with kanamycin (50 mg/l) to prepare a pre-culture. After overnight incubation at 28° C. and 200 rpm, this pre-culture was used to inoculated a flask with 500 ml of 2*TY medium (10 g/l Yeast extract, 16 g/l Tryptone, 5 g/l NaCl) containing kanamycin (50 mg/l). After overnight growth at 28° C. (OD620nm=4.4) and 200 rpm, cells were harvested by centrifugation (15 min. at 6,200×g, 4° C.), and washed with 50 mM HEPES-NaOH buffer of pH 7.7.
The cell pellets from both cultures were subsequently washed and resuspended in 25 ml of 50 mM HEPES-NaOH buffer, pH 7.7. Aliquots of 2 ml of both cell suspensions were centrifuged once more and the pellets were stored at −20° C. until execution of the activity tests described below. The remaining part of these cell suspensions was stored at −20° C. for use in Example 6.
To determine the activity of E. coli/pOA(1)PLV49B10 and the E. coli control, the above-mentioned cell pellets were thawed and resuspended to a total volume of 1 ml with 50 mM HEPES-NaOH buffer, pH 7.7. Then, reaction mixtures of 10 ml each were prepared containing 50 mM HEPES-NaOH buffer (pH 7.7), 10 μM pyridoxal-5-phosphate (PLP), 2.5 wt % of D-leucine amide, if applicable 20 mM of EDTA to suppress the E. coli amidase activity, and 0.5 ml of the E. coli/pOA(1)PLV49B10 and E. coli DH10B/pZErO-GFPuv-wrong-orientation cell suspensions or water (for chemical blanks). Reactions were started by the addition of the cells. Reaction mixtures were incubated at 30° C. and 175 rpm. Directly after addition of the cells (t=0 hours) and after 27 and 43 hours samples were taken in which the reaction was stopped by removal of the cells via centrifugation followed by 0.22 μM filtration. Finally, the filtered samples were stored at −20° C. until analysis by chiral HPLC as described below: • column: Sumichiral OA5000 from Sumika (150×4.6 mm I.D., 5μ)+guard column • eluent: 85 v/v % 2 mM CuSO4+15 v/v % methanol • flow: 1.0 ml/min. • column temp.: 40° C. • inj. volume: 5 μl • detection: fluorescence detection after post-column reaction with o-phthalaldehyde and 2-mercaptoethanol (wavelength ex=338 nm and em>420 nm)

Experiment [2] has as its system E. coli clone containing the O. anthropi IA α-H-α-amino acid amide racemase gene (pOa(1)PLV49B10). The experiment is described as follows: Confirmation of potential positive clone of the O. anthropi IA gene library. The note with it: 70 mM substrate, 20 h at 30° C. In kind it is cell-based, Ochrobactrum anthropi IA. As for the experimental part: Of all 32 potential positive clones identified in the screening, material from the masterplates was used to inoculate 3 ml of liquid screening medium containing 50 mg/l kanamycin. After growth for 2 days at 30° C., cells were collected by centrifuging 2 ml of these cell cultures. Then the cell pellets were washed four times in 25 mM Tris-HCl buffer, pH 7.5. Subsequently, the cell pellets were resuspended in 100 μl substrate solution containing 70 mM of D-phenylalanine amide, or D-leucine amide, or D-valine amide in 50 mM Tris-HCl, pH 7.5 and 1 mM MnCl2. After incubation for 20 h at 30° C., the reactions were stopped by the addition of 100 μl of 0.15 M HCl, after which the reaction mixtures were analyzed by the HPLC method described in Example 1.
This clone contained the O. anthropi IA α-H-α-amino acid amide racemase gene on its 7.7 kb plasmid. This was concluded from the fact that transformation of this plasmid into E. coli TOP10 cells inevitably led to recombinant cells that converted D-leucine amide into L-Leucine. […] The sequence of this gene is listed as nucleotides 98 to 1417 (including the TAA stopcodon) of SEQ ID NO:1 encoding the protein of SEQ ID: NO. 2 as presented infra.

[3] abbreviates: with 20 mM EDTA, incubation time 27 h.
[4] abbreviates: with 20 mM EDTA, incubation time 43 h.
The mark [5] stands for this setting: without 20 mM EDTA, incubation time 27 h.
The mark [6] stands for this setting: without 20 mM EDTA, incubation time 43 h.

For `CC(C)C[C@@H](N)C(N)=O` [D-leucine amide], the D-leucine amide is 2.61 wt % in experiment [1] (with 20 mM EDTA, incubation time 0 h); 1.77 wt % in experiment [1] (setting [3]); 1.59 wt % in experiment [1] (setting [4]); 2.63 wt % in experiment [1] (without 20 mM EDTA, incubation time 0 h); 1.03 wt % in experiment [1] (setting [5]); 0.512 wt % in experiment [1] (setting [6]). Moreover, the D-leucine in experiment [1] (setting [3]) is recorded as 0.003 wt %; in experiment [1] (setting [4]), 0.006 wt %; in experiment [1] (setting [5]), 0.009 wt %; in experiment [1] (setting [6]), 0.017 wt %. Moreover, the L-leucine in experiment [1] (setting [3]) came out at 0.313 wt %; in experiment [1] (setting [4]) it was 0.345 wt %; in experiment [1] (setting [5]), 1.71 wt %; in experiment [1] (setting [6]) it was 2.12 wt %. Moreover, the L-leucine amide was determined as 0.555 wt % in experiment [1] (setting [3]), 0.772 wt % in experiment [1] (setting [4]), 0.170 wt % in experiment [1] (setting [5]) and 0.063 wt % in experiment [1] (setting [6]). Further, the “formation of L-leucine from D-leucine amide” value in experiment [2] is given as “significant formation of L-leucine”.
